# Results from PubChem BioAssay (NCI).
#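 Tested at 5 concentrations; 48 h exposure; 96-well plates; endpoints linearly interpolated, else capped at highest concentration. TGI: concentration producing complete growth inhibition.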
# Tests used:
# Experiment in all cases: NCI tumour cell line growth inhibition, 48 h
# SNB-19 CNS = system: SNB-19 CNS
# HCC-2998 colon = system: HCC-2998 colon
# HOP-18 NSCLC = system: HOP-18 NSCLC
# LOX IMVI melanoma = system: LOX IMVI melanoma
# NCI-H522 lung = system: NCI-H522 lung
# IGROV1 ovarian = system: IGROV1 ovarian
# SW-620 colon = system: SW-620 colon
# K-562 leukemia = system: K-562 leukemia
# HCT-15 colon = system: HCT-15 colon
# MOLT-4 leukemia = system: MOLT-4 leukemia
# NCI-H460 lung = system: NCI-H460 lung
# SF-295 CNS = system: SF-295 CNS
# M14 melanoma = system: M14 melanoma
# HOP-92 NSCLC = system: HOP-92 NSCLC
# UO-31 renal = system: UO-31 renal
# RPMI-8226 leukemia = system: RPMI-8226 leukemia
# KM20L2 colon = system: KM20L2 colon
# SF-268 CNS = system: SF-268 CNS
# LXFL 529 NSCLC = system: LXFL 529 NSCLC
# TK-10 renal = system: TK-10 renal
# SK-MEL-28 melanoma = system: SK-MEL-28 melanoma
# OVCAR-4 ovarian = system: OVCAR-4 ovarian
# RXF 393 renal = system: RXF 393 renal
# COLO 205 colon = system: COLO 205 colon
# UACC-62 melanoma = system: UACC-62 melanoma
# HL-60(TB) leukemia = system: HL-60(TB) leukemia
# OVCAR-5 ovarian = system: OVCAR-5 ovarian
# SNB-75 CNS = system: SNB-75 CNS
# SF-539 CNS = system: SF-539 CNS
# OVCAR-3 ovarian = system: OVCAR-3 ovarian
# SK-MEL-2 melanoma = system: SK-MEL-2 melanoma
# EKVX NSCLC = system: EKVX NSCLC
# KM12 colon = system: KM12 colon
# DMS 273 small cell lung = system: DMS 273 small cell lung
# SK-MEL-5 melanoma = system: SK-MEL-5 melanoma
# NCI-H23 lung = system: NCI-H23 lung
# MALME-3M melanoma = system: MALME-3M melanoma
# SNB-78 CNS = system: SNB-78 CNS
# ACHN renal = system: ACHN renal
# UACC-257 melanoma = system: UACC-257 melanoma
# HT29 colon = system: HT29 colon
# DMS 114 small cell lung = system: DMS 114 small cell lung
# CCRF-CEM leukemia = system: CCRF-CEM leukemia
# OVCAR-8 ovarian = system: OVCAR-8 ovarian
# SN12C renal = system: SN12C renal
# DLD-1 colon = system: DLD-1 colon
# A549 NSCLC = system: A549 NSCLC
# NCI-H226 lung = system: NCI-H226 lung
# CAKI-1 renal = system: CAKI-1 renal
# A498 renal = system: A498 renal
# HCT-116 colon = system: HCT-116 colon
# U251 CNS = system: U251 CNS
# RXF-631 renal = system: RXF-631 renal
# HOP-62 NSCLC = system: HOP-62 NSCLC
# SR leukemia = system: SR leukemia
# 786-0 renal = system: 786-0 renal
# XF 498 CNS = system: XF 498 CNS
# SK-OV-3 ovarian = system: SK-OV-3 ovarian
# M19-MEL melanoma = system: M19-MEL melanoma
smiles,measurement,setting,value
COc1cc2c(cc1C)n(O)c(C)c(C(=O)C/C(=N/NC(=O)C[N+](C)(C)C)C(=O)Nc1cccc(Cl)c1C)[n+]2=O,TGI,SNB-19 CNS,> 100 µM
same,TGI,HCC-2998 colon,> 100 µM
same,TGI,HOP-18 NSCLC,> 100 µM
same,TGI,LOX IMVI melanoma,> 100 µM
same,TGI,NCI-H522 lung,> 100 µM
same,TGI,IGROV1 ovarian,> 100 µM
same,TGI,SW-620 colon,> 100 µM
same,TGI,K-562 leukemia,> 100 µM
same,TGI,HCT-15 colon,> 100 µM
same,TGI,MOLT-4 leukemia,> 100 µM
same,TGI,NCI-H460 lung,> 100 µM
same,TGI,SF-295 CNS,> 100 µM
same,TGI,M14 melanoma,> 100 µM
same,TGI,HOP-92 NSCLC,> 100 µM
same,TGI,UO-31 renal,> 100 µM
same,TGI,RPMI-8226 leukemia,> 100 µM
same,TGI,KM20L2 colon,> 100 µM
same,TGI,SF-268 CNS,> 100 µM
same,TGI,LXFL 529 NSCLC,> 100 µM
same,TGI,TK-10 renal,> 100 µM
same,TGI,SK-MEL-28 melanoma,> 100 µM
same,TGI,OVCAR-4 ovarian,> 100 µM
same,TGI,RXF 393 renal,> 100 µM
same,TGI,COLO 205 colon,> 100 µM
same,TGI,UACC-62 melanoma,> 100 µM
same,TGI,HL-60(TB) leukemia,> 100 µM
same,TGI,OVCAR-5 ovarian,> 100 µM
same,TGI,SNB-75 CNS,> 100 µM
same,TGI,SF-539 CNS,> 100 µM
same,TGI,OVCAR-3 ovarian,> 100 µM
same,TGI,SK-MEL-2 melanoma,> 100 µM
same,TGI,EKVX NSCLC,> 100 µM
same,TGI,KM12 colon,> 100 µM
same,TGI,DMS 273 small cell lung,> 100 µM
same,TGI,SK-MEL-5 melanoma,> 100 µM
same,TGI,NCI-H23 lung,> 100 µM
same,TGI,MALME-3M melanoma,> 100 µM
same,TGI,SNB-78 CNS,> 100 µM
same,TGI,ACHN renal,> 100 µM
same,TGI,UACC-257 melanoma,> 100 µM
same,TGI,HT29 colon,> 100 µM
same,TGI,DMS 114 small cell lung,> 100 µM
same,TGI,CCRF-CEM leukemia,> 100 µM
same,TGI,OVCAR-8 ovarian,> 100 µM
same,TGI,SN12C renal,> 100 µM
same,TGI,DLD-1 colon,> 100 µM
same,TGI,A549 NSCLC,> 100 µM
same,TGI,NCI-H226 lung,> 100 µM
same,TGI,CAKI-1 renal,> 100 µM
same,TGI,A498 renal,> 100 µM
same,TGI,HCT-116 colon,> 100 µM
same,TGI,U251 CNS,> 100 µM
same,TGI,RXF-631 renal,> 100 µM
same,TGI,HOP-62 NSCLC,> 100 µM
same,TGI,SR leukemia,> 100 µM
same,TGI,786-0 renal,> 100 µM
same,TGI,XF 498 CNS,> 100 µM
COc1cc([C@H]2Oc3c(c(O)cc4oc(-c5ccccc5)cc(=O)c34)O[C@@H]2CO)ccc1O,TGI,HCC-2998 colon,> 100 µM
same,TGI,NCI-H522 lung,> 100 µM
same,TGI,IGROV1 ovarian,> 100 µM
same,TGI,K-562 leukemia,> 100 µM
same,TGI,NCI-H460 lung,32.5 µM
same,TGI,M14 melanoma,38.5 µM
same,TGI,HOP-92 NSCLC,87.6 µM
same,TGI,UO-31 renal,> 100 µM
same,TGI,SF-268 CNS,> 100 µM
same,TGI,LXFL 529 NSCLC,> 100 µM
same,TGI,SK-MEL-28 melanoma,> 100 µM
same,TGI,OVCAR-4 ovarian,> 100 µM
same,TGI,COLO 205 colon,> 100 µM
same,TGI,UACC-62 melanoma,> 100 µM
same,TGI,HL-60(TB) leukemia,36.2 µM
same,TGI,SNB-75 CNS,> 100 µM
same,TGI,SF-539 CNS,> 100 µM
same,TGI,SK-MEL-2 melanoma,57.6 µM
same,TGI,DMS 273 small cell lung,25 µM
same,TGI,NCI-H23 lung,> 100 µM
same,TGI,MALME-3M melanoma,83.4 µM
same,TGI,SNB-78 CNS,> 100 µM
same,TGI,SK-OV-3 ovarian,> 100 µM
same,TGI,DMS 114 small cell lung,> 100 µM
same,TGI,CCRF-CEM leukemia,23.7 µM
same,TGI,SN12C renal,> 100 µM
same,TGI,DLD-1 colon,56.4 µM
same,TGI,NCI-H226 lung,> 100 µM
same,TGI,CAKI-1 renal,> 100 µM
same,TGI,A498 renal,> 100 µM
same,TGI,HCT-116 colon,> 100 µM
same,TGI,M19-MEL melanoma,> 100 µM
same,TGI,RXF-631 renal,62.7 µM
same,TGI,HOP-62 NSCLC,> 100 µM
same,TGI,SR leukemia,36.7 µM
same,TGI,786-0 renal,> 100 µM
same,TGI,XF 498 CNS,> 100 µM
COc1cccc(C2C(C(=O)Nc3cc(=O)n(C)c(=O)n3C)=C(C)NC(C)=C2C(=O)Nc2cc(=O)n(C)c(=O)n2C)c1O,TGI,SNB-19 CNS,> 100 µM
same,TGI,HCC-2998 colon,> 100 µM
same,TGI,LOX IMVI melanoma,> 100 µM
same,TGI,NCI-H522 lung,> 100 µM
same,TGI,IGROV1 ovarian,> 100 µM
same,TGI,SW-620 colon,> 100 µM
same,TGI,K-562 leukemia,> 100 µM
same,TGI,MOLT-4 leukemia,> 100 µM
same,TGI,NCI-H460 lung,> 100 µM
same,TGI,SF-295 CNS,> 100 µM
same,TGI,M14 melanoma,> 100 µM
same,TGI,HOP-92 NSCLC,> 100 µM
same,TGI,UO-31 renal,> 100 µM
same,TGI,RPMI-8226 leukemia,> 100 µM
same,TGI,KM20L2 colon,> 100 µM
same,TGI,SF-268 CNS,> 100 µM
same,TGI,LXFL 529 NSCLC,> 100 µM
same,TGI,TK-10 renal,> 100 µM
same,TGI,SK-MEL-28 melanoma,> 100 µM
same,TGI,OVCAR-4 ovarian,> 100 µM
same,TGI,RXF 393 renal,> 100 µM
same,TGI,COLO 205 colon,> 100 µM
same,TGI,HL-60(TB) leukemia,> 100 µM
same,TGI,OVCAR-5 ovarian,> 100 µM
same,TGI,SNB-75 CNS,> 100 µM
same,TGI,SF-539 CNS,> 100 µM
same,TGI,OVCAR-3 ovarian,> 100 µM
same,TGI,SK-MEL-2 melanoma,> 100 µM
same,TGI,EKVX NSCLC,> 100 µM
same,TGI,KM12 colon,> 100 µM
same,TGI,SK-MEL-5 melanoma,> 100 µM
same,TGI,NCI-H23 lung,> 100 µM
same,TGI,MALME-3M melanoma,> 100 µM
same,TGI,SNB-78 CNS,> 100 µM
same,TGI,ACHN renal,> 100 µM
same,TGI,SK-OV-3 ovarian,> 100 µM
same,TGI,UACC-257 melanoma,> 100 µM
same,TGI,HT29 colon,> 100 µM
same,TGI,DMS 114 small cell lung,> 100 µM
same,TGI,CCRF-CEM leukemia,> 100 µM
same,TGI,OVCAR-8 ovarian,> 100 µM
same,TGI,SN12C renal,> 100 µM
same,TGI,DLD-1 colon,> 100 µM
same,TGI,A549 NSCLC,> 100 µM
same,TGI,NCI-H226 lung,> 100 µM
same,TGI,CAKI-1 renal,> 100 µM
same,TGI,A498 renal,> 100 µM
same,TGI,U251 CNS,> 100 µM
same,TGI,M19-MEL melanoma,> 100 µM
same,TGI,RXF-631 renal,> 100 µM
same,TGI,HOP-62 NSCLC,> 100 µM
same,TGI,786-0 renal,> 100 µM
same,TGI,XF 498 CNS,> 100 µM
O=c1cccccc1NCCCCNc1cccccc1=O,TGI,SNB-19 CNS,> 100 µM
same,TGI,HCC-2998 colon,> 100 µM
same,TGI,HOP-18 NSCLC,> 100 µM
same,TGI,LOX IMVI melanoma,> 100 µM
same,TGI,NCI-H522 lung,> 100 µM
same,TGI,IGROV1 ovarian,> 100 µM
same,TGI,SW-620 colon,> 100 µM
same,TGI,K-562 leukemia,> 100 µM
same,TGI,HCT-15 colon,> 100 µM
same,TGI,MOLT-4 leukemia,> 100 µM
same,TGI,NCI-H460 lung,> 100 µM
same,TGI,SF-295 CNS,> 100 µM
same,TGI,M14 melanoma,> 100 µM
same,TGI,UO-31 renal,> 100 µM
same,TGI,RPMI-8226 leukemia,> 100 µM
same,TGI,KM20L2 colon,> 100 µM
same,TGI,SF-268 CNS,> 100 µM
same,TGI,LXFL 529 NSCLC,> 100 µM
same,TGI,TK-10 renal,> 100 µM
same,TGI,SK-MEL-28 melanoma,> 100 µM
same,TGI,OVCAR-4 ovarian,> 100 µM
same,TGI,COLO 205 colon,> 100 µM
same,TGI,UACC-62 melanoma,> 100 µM
same,TGI,HL-60(TB) leukemia,> 100 µM
same,TGI,OVCAR-5 ovarian,> 100 µM
same,TGI,SNB-75 CNS,> 100 µM
same,TGI,OVCAR-3 ovarian,> 100 µM
same,TGI,SK-MEL-2 melanoma,> 100 µM
same,TGI,EKVX NSCLC,> 100 µM
same,TGI,KM12 colon,> 100 µM
same,TGI,DMS 273 small cell lung,> 100 µM
same,TGI,SK-MEL-5 melanoma,96.8 µM
same,TGI,NCI-H23 lung,> 100 µM
same,TGI,MALME-3M melanoma,> 100 µM
same,TGI,SNB-78 CNS,> 100 µM
same,TGI,ACHN renal,> 100 µM
same,TGI,SK-OV-3 ovarian,> 100 µM
same,TGI,UACC-257 melanoma,> 100 µM
same,TGI,HT29 colon,> 100 µM
same,TGI,DMS 114 small cell lung,> 100 µM
same,TGI,CCRF-CEM leukemia,> 100 µM
same,TGI,OVCAR-8 ovarian,> 100 µM
same,TGI,SN12C renal,> 100 µM
same,TGI,DLD-1 colon,> 100 µM
same,TGI,A549 NSCLC,> 100 µM
same,TGI,NCI-H226 lung,> 100 µM
same,TGI,CAKI-1 renal,> 100 µM
same,TGI,A498 renal,> 100 µM
same,TGI,HCT-116 colon,> 100 µM
same,TGI,U251 CNS,> 100 µM
same,TGI,M19-MEL melanoma,> 100 µM
same,TGI,RXF-631 renal,> 100 µM
same,TGI,HOP-62 NSCLC,> 100 µM
same,TGI,786-0 renal,> 100 µM
